From US12521397B2, “Nucleotide analogs” (The Regents of the University of California, priority 2014, dated 2026)
Like-named read-outs stand apart in the source and are kept apart here.

What was measured:
HPV-11 = assay: Low risk HPV origin plasmid replication assay (qPCR) in HEK 293 cells; format: cell-based, human papillomavirus
Experimental: (§1) An origin-containing low risk or high risk HPV plasmid was co-transfected with homologous E1 and E2 protein expression vectors into HEK 293 cells. At 4 h post-transfection, cells were treated with test compound dilutions and then incubated for 48 h. HPV origin plasmid replication was detected after digestion with DpnI and exonuclease III to remove unreplicated transfected plasmids. Remaining replicated DNA was quantified by quantitative real time PCR (qPCR). In a parallel experiment in uninfected cells cytotoxicity was determined by trypan blue exclusion or CELLTITER-GLO® to find the concentration that reduced viable cell number by 50% (CC50). CC50 values were determined by trypan blue exclusion or CELLTITER-GLO® and the selectivity index calculated (Selectivity index=CC50/EC50). The low risk HPV tested was HPV-11, and the high-risk HPV tested was HPV-16 and HPV-18.

HPV-16 and HPV-18 = assay: High risk HPV origin plasmid replication assay (qPCR) in HEK 293 cells; format: cell-based, human papillomavirus; settings: read-out: High Risk (EC50)
Experimental: as §1

HEK-293 cells = assay: Cytotoxicity assay in HEK-293 cells (trypan blue exclusion or CellTiter-Glo); format: cell-based
Experimental: as §1
Cytotoxicity Assays in HEK-293 cells. Cytotoxicity assays are performed in concurrently with every antiviral assay using the same cell line and media to ensure the same compound exposure. For the antiviral studies against HPV11 in HEK-293 cells, transfected cells are seeded in duplicate plates. […] At 48 h following compound addition, CELLTITER-GLO® (Promega) is added to each well and luminescence is determined on a luminometer. […]

[1] = system: human foreskin fibroblast (HFF) cells; assay: Cytotoxicity assay in primary human foreskin fibroblast cells (CellTiter-Glo); format: cell-based; settings: 7d incubation
Experimental: Cytotoxicity Assays in Primary Human Foreskin Fibroblast Cells. Cytotoxicity was also evaluated in human foreskin fibroblast (HFF) cells as they are a highly sensitive indicator of toxicity in a standard assay with 7 d of compound exposure. A total of 4000 cells/well are seeded in 384-well plates in cell culture media containing 2% fetal bovine serum and antibiotics. Following a 24 h incubation, 5-fold compound dilutions are performed in duplicate wells directly in the plates containing monolayers of HFF cells. At 7 d following compound addition, CellTiter-Glo reagent is added to each well and resulting luminescence is measured on a luminometer to assess the number of viable cells in each well. Data are then used to calculate CC50 values.

[2] = low risk HPV tested was HPV-11, HEK 293 cells, 48 h incubation, read-out: Low Risk (EC50)

## CCCCCCCCCCCCCCCCCCOCC(COP(=O)(O)COCCn1cnc2c(=O)[nH]c(N)nc21)OCc1ccccc1 (stereo not shown) [ODBG-PMEG, 1-O-Octadecyl-2-O-benzyl-sn-glyceryl PMEG]
HPV-11; Human papillomavirus, HEK293, low risk HPV tested was HPV-11, HEK 293 cells, 48 h incubation, read-out: Low Risk (EC50)
  EC50: 0.3 to 3 µM
HPV-16 and HPV-18; Human papillomavirus, HEK293, 48 h
  EC50: 0.3 to 3 µM

## CCCCCCCCCCCCCCCCCCOCCOP(=O)(O)COCCn1cnc2c(=O)[nH]c(N)nc21 [ODE-PMEG, Octadecyloxyethyl-Phosphonomethoxyethylguanine]
HPV-11; [2]
  EC50: < 0.3 µM
HPV-16 and HPV-18; high-risk HPV tested was HPV-16 and HPV-18, HEK 293 cells, 48 h incubation
  EC50: < 0.3 µM

## CCOC(=O)[C@H](C)NP(=O)(COCCn1cnc2c(=O)[nH]c(N)nc21)Oc1ccccc1 (stereo partly shown) [PMEG phenoxy amidate Example 10]
HEK-293 cells; CellTiter-Glo, 2d incubation, read-out: Cytotoxicity CC50, HEK 293 (2d incubation)
  CC50: > 100 µM
HEK-293 cells; Table B, HEK-293 cells, parallel to HPV-11 antiviral assay, read-out: CC50
  CC50: > 100 µM
HPV-11; Human papillomavirus, HEK293
  EC50: 7.56 ± 0.63 µM
  EC90: > 100 µM
[1]
  CC50: 70.9 ± 4.07 µM

## Nc1nc2c(ncn2CCOCP(=O)(O)O)c(=O)[nH]1 [PMEG, 9-(2-phosphonylmethoxyethyl) guanine, reference compound]
HPV-11; [2]
  EC50: 3 to 30 µM
